# Patent US20260174860A1, “HYBRID COMPOUNDS OF SCLAREOL AND DOXORUBICIN, THEIR SYNTHESIS AND APPLICATION” (INSTITUTE FOR BIOLOGICAL RESEARCH "SINISA STANKOVIC" - …, priority 2023, published 2026)
# Assays:
# Assay in all cases: MTT test of cell viability, 72 h treatment
# Type in all cases: cell-based
# [1] = tested on: NCI-H460 human non-small cell lung carcinoma cell line; conditions: for IC50: MTT, 72 h; for Selectivity Index: ratio IC50 MRC-5 (2,000 cells per well) / IC50 NCI-H460
# Procedure: (§1) The MTT test was used to evaluate the effect of the compounds on cell viability. The test relies on the reduction of tetrazolium salt (MTT) to formazan, which is catalyzed by the mitochondrial enzyme succinate dehydrogenase. The activity of succinate dehydrogenase, which is indicative of mitochondrial respiration, is taken as an indirect measure of the metabolic activity of the cell, and thus its viability. The MTT-formazan produced is a purple-colored product, whose absorbance is measured at a wavelength of 570 nm. • a) To determine the inhibition of cell growth by SC, different cell lines were exposed to increasing concentrations of SC (5, 10, 25, 50, and 100 μM). The cells were seeded in 96-well microtiter plates at a density of 2,000 cells per well for NCI-H460, NCI-H460/R, DLD1 and DLD1-TxR, and 4,000 cells per well for MRC-5, U87, U87-TxR, and U251 in 100 μL of the appropriate medium. Control cells that received no treatment were also seeded at the same time. After 24 h for adaptation, the cells were treated with various concentrations of SC. After 72 h of treatment, 0.2 mg/ml MTT was added to each well in the appropriate cell culture medium. After 4 h of incubation at 37° C. with 5% CO2, the medium was removed, and 100 μL of DMSO were added to each well, to dissolve the formazan. The absorbance of the samples was measured at 570 nm using a Multiskan Sky Microplate spectrophotometer (ThermoFisher Scientific, USA). The results were analyzed using GraphPad Prism 8.0.2. software, and the IC50 values were determined by non-linear regression. • b) To test the interaction between SC and DOX in terms of cytotoxicity in different cell lines, cells were seeded in 96-well microtiter plates at a density of 2,000 cells per well for NCI-H460, NCI-H460/R, DLD1 and DLD1-TxR, and 4,000 cells per well for MRC-5, U87, U87-TxR, and U251 in 100 μl of the appropriate medium. SC (10 and 20 μM) was combined with increasing concentrations of DOX (20, 50, 100, 200, and 500 nM). The cells were treated with the simultaneous combinations for 72 h. After this period, 0.2 mg/ml MTT was added to each well, followed by 4 hours of incubation at 37° C. with 5% CO2. The medium was then removed, and DMSO was added to each well to dissolve the formazan.
# (§2) The analysis was carried out using GraphPad Prism software version 8.0.2 to determine the nature of the interaction, namely synergistic, antagonistic, or additive, between compounds. This was done using the computer software CalcuSyn, which is based on the combination index method. The method takes into account the concentration of compounds, the individual effect of each compound, as well as the effect of two compounds in combination. The values of the combination indices (CI) describe the nature of the interaction: Cl<0.9 indicates synergism, Cl>1.1 indicates antagonism, and Cl=0.9-1.1 indicates an additive effect. • c) To compare the resistance and selectivity profiles among SC, DOX, CON1, and CON2, human glioblastoma cell lines U87, U87-TxR, and MRC-5 were seeded at a density of 4,000 cells per well in 100 μL of the appropriate medium. In contrast, NCI-H460, NCI-H460/R, and MRC-5 were seeded at a density of 2,000 cells per well in 100 μL of the proper medium. The effect of SC derivatives LIG1 and LIG2 was also examined. The range of concentrations differed among the cell lines and the compounds. For LIG1 and LIG2, the range of concentrations for all cell lines was 50, 100, 200, 300, and 400 μM, while the same range was used for the MRC-5 in the case of SC, CON1, and CON2. DOX concentrations ranged 0.1, 0.25, 0.5, 1, and 2.5 μM for U87 and NCI-H460, and 0.25, 0.5, 1, 2.5, and 5 μM for U87-TxR, NCI-H460/R, and MRC-5. […] concentrations used for SC, CON1, and CON2 treatments varied in the range 1, 2.5, 5, 10, 25, 50, and 100 μM. The treatment lasted 72 h. After the treatment period, 0.2 mg/ml MTT in the appropriate cell culture medium was added to each well. […]
# [2] = tested on: U87 human glioblastoma cell line; conditions: for IC50: MTT, 72 h; for Selectivity Index: ratio IC50 MRC-5 (4,000 cells per well) / IC50 U87
# Procedure: as §1, §2
# [3] = tested on: MRC-5 human lung fibroblast cell line
# Procedure: as §1
# (§3) The absorbance of the samples was measured at 570 nm using a Multiskan Sky Microplate spectrophotometer.
# as §2, with “h.” for “h. After the treatment period, 0.2 mg/ml MTT in the appropriate cell culture medium was added to each well.”
# [4] = tested on: NCI-H460/R resistant human non-small cell lung carcinoma cell line; conditions: for IC50: MTT, 72 h, MDR line; for Relative Resistance: ratio IC50 NCI-H460/R / IC50 NCI-H460
# Procedure: as §1, §3
# as §2, with “h.” for “h. After the treatment period, 0.2 mg/ml MTT in the appropriate cell culture medium was added to each well.”
# [5] = tested on: U87-TxR resistant human glioblastoma cell line; conditions: for IC50: MTT, 72 h, MDR line; for Relative Resistance: ratio IC50 U87-TxR / IC50 U87
# Procedure: as §1, §3
# as §2, with “h.” for “h. After the treatment period, 0.2 mg/ml MTT in the appropriate cell culture medium was added to each well.”
# [6] = Homo sapiens, NCI-H460, DOX only
compound,measurement,setting,value
"N1-((25,3S,4S,6R)-3-hydroxy-2-methyl-6-(((1S,3S)-3,5,12-trihydroxy-3-(2-hydroxyacetyl)-10-methoxy-6,11-dioxo-1,2,3,4,6,11-hexahydrotetracen-1-yl)oxy)tetrahydro-2H-pyran-4-yl)-N4-(3-((4-((R,E)-3-hydroxy-5-((1R,2R,4aS,8aS)-2-hydroxy-2,5,5,8a-tetramethyldecahydronaphthalen-1-yl)-3-methylpent-1-en-1-yl)benzyl)amino)propyl) succinamide [CON1]",IC50,[1],9.8 µM
same,Selectivity Index,[1],7.4
same,IC50,[2],8.8 µM
same,Selectivity Index,[2],15.6
same,IC50,"[3]; 2,000 cells per well (non-small cell carcinoma experiments)",72.6 µM
same,IC50,"[3]; 4,000 cells per well (glioblastoma experiments)",137 µM
same,IC50,[4],38.4 µM
same,Relative Resistance,[4],3.9
same,IC50,[5],28.7 µM
same,Relative Resistance,[5],3.3
"COc1cccc2c1C(=O)c1c(O)c3c(c(O)c1C2=O)C[C@@](O)(C(=O)CO)C[C@@H]3O[C@H]1C[C@H](N)[C@H](O)[C@H](C)O1 [DOX, doxorubicin]",IC50,[1]; [6],0.128 µM
same,Selectivity Index,[1],4.6
same,IC50,"[2]; Homo sapiens, DOX only",0.1 µM
same,Selectivity Index,[2],2.9
same,IC50,"[3]; Homo sapiens, MRC5, 72 h, 2,000 cells per well (non-small cell carcinoma experiments), DOX only",0.588 µM
same,IC50,"[3]; Homo sapiens, MRC5, 72 h, 4,000 cells per well (glioblastoma experiments), DOX only",0.295 µM
same,IC50,[4]; [6],2.5 µM
same,Relative Resistance,[4],19.6
same,IC50,"[5]; Homo sapiens, U87-TxR, DOX only",1.32 µM
same,Relative Resistance,[5],13.2
"C=C[C@](C)(O)CC[C@@H]1[C@@]2(C)CCCC(C)(C)[C@@H]2CC[C@@]1(C)O [SC, sclareol]",IC50,"[1]; Homo sapiens, NCI-H460",40.3 µM
same,Selectivity Index,[1],1.6
same,IC50,[2]; Homo sapiens,51.6 µM
same,Selectivity Index,[2],1.5
same,IC50,"[3]; Homo sapiens, MRC5, 72 h, 2,000 cells per well (non-small cell carcinoma experiments)",64.1 µM
same,IC50,"[3]; Homo sapiens, MRC5, 72 h, 4,000 cells per well (glioblastoma experiments)",75.9 µM
same,IC50,"[4]; Homo sapiens, NCI-H460",47.4 µM
same,Relative Resistance,[4],1.2
same,IC50,"[5]; Homo sapiens, U87-TxR",39.2 µM
same,Relative Resistance,[5],0.8
